Laboratory results as given in patent publication US11707442B2, “Antibacterial and antifungal compounds” (The General Hospital Corporation, priority 2015, dated 2023).
In brackets after ≈: the same amount, converted by molar mass. Like-named read-outs stand apart in the source and are kept apart here.

Assays:
E. faecium = assay: MIC, broth microdilution; format: cell-based, Enterococcus faecium; conditions: for MIC: Enterococcus faecium; for susceptibility of E. faecium: result in words
Method in brief: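 MIC by CLSI broth microdilution (M07-A8) in MH broth; E. aerogenes, K. pneumoniae and A. baumannii pre-grown in LB, E. faecium in BHI, at 37° C. Inoculum at initial OD600 0.03, incubated 18 hrs at 35° C., growth read as absorbance at 595 nm.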

[1] = system: C. elegans infected with MRSA strain MW2; format: in vivo; conditions: for C. elegans animals surviving MRSA infection: concentrations above the MIC
Method: The C. elegans-MRSA liquid infection assay has been described (Rajamuthiah et al. Plos One. 2014; 9(2):e89189). In brief, 4,500 glp-4 (bn2); sek-1(km4) L1 hatchlings were grown on SK-HB101 agar plates for 52 hours at the restrictive temperature of 25° C. until animals became sterile young adults and later harvested with M9 buffer. S. aureus MW2 was grown overnight at 37° C. in TSB, first under aerobic conditions and later shifted to anaerobic growth conditions at 37° C. The infection assay was performed in standard 384-well assay plates, in the presence of the compound being tested or 1% dimethyl sulfoxide (DMSO) as a control. Bacteria were added to the wells at a final OD600 of 0.06, followed by the use of a Complex Object Parametric Analyzer and Sorter (COPAS) large particle sorter (Union Biometrica, Holliston, Mass., USA) to transfer 15 adult worms to each well of an assay plate. After 5 days of incubation in a humidified chamber at 25° C., the bacteria and other debris were washed from the wells with a microplate washer and the worms were stained with the vital dye Sytox Orange (Life Technologies). After overnight incubation at 25° C. in a humidified chamber, the plates were imaged using an Image Xpress Micro automated microscope (Molecular Devices, Sunnyvale, Calif., USA), capturing both transmitted light and TRITC (535 nm excitation, 610 nm emission) fluorescent images with a 2× objective. The images from the infection assay were processed using the open source image analysis software CellProfiler and analysis modules as described previously. The ratio of Sytox worm area to bright field worm area, and the resultant percentage survival data, is calculated by the software for each well of the assay plates. The assay was performed in triplicate comparing the survival of worms at various concentrations of drugs.
Killing assays were carried out as described in Methods using S. aureus MRSA MW2 and 10 μg/ml retinoids, 10 μg/ml vancomycin (positive control), or 1% DMSO (negative control) at 25° C. for 5 days. Data are representative of three independent experiments. (B) Chemical structures of synthetic retinoids. (C) Growth of MRSA strain MW2 exposed to the indicated concentrations of compounds was quantified by measuring OD600 after 18 h in tryptic soy broth (TSB). (D) C. elegans infected with MRSA strain MW2 was treated with indicated concentrations of compounds. Percent survival of C. elegans was normalized to C. elegans treated with DMSO. (E-F) MRSA persisters prepared as described in Methods were treated with the indicated concentrations of each retinoid. Viability was measured by serial dilution and plating on TSA plates. The data points on the x-axis are below the level of detection (2×10^2 CFU/ml). (E,F) Results are shown as means±s.d.; n=3.

[2] = system: S. aureus persister cells (stationary phase); assay: Persister killing assay; format: cell-based, Staphylococcus aureus; conditions: for viability of MW2 persister cells, single agent: 4 μg/ml CD437 or CD1530 or 10 μg/ml gentamicin alone; for time to complete eradication of MW2 persisters, combination: 4 μg/ml retinoid plus 10 μg/ml gentamicin; for eradication of persisters formed by S. aureus strain VRS1 and 11 clinical S. aureus strains: 10×MIC, 4 h; for bactericidal concentration against MRSA persisters: MRSA MW2 persisters
Method: Persister killing assay. […] Persister cells of these 13 S. aureus strains were developed by growing cultures overnight to stationary phase at 37° C. at 225 rpm. The overnight cultures were washed three times with PBS and diluted to ˜10^7 CFU/ml with the same buffer, which is the same concentration as used in the killing kinetics assay described herein. 1 ml of the persister suspension containing appropriate concentrations of antibiotics was added to the wells of a 2 ml deep well assay block (Corning Costar 3960) and incubated at 37° C., with shaking at 225 rpm. At specific times, 50 μl samples were removed, serially diluted and spot-plated on TSA plates to enumerate the number of live cells. These experiments were conducted in triplicate.

MRSA strain MW2 = assay: Checkerboard assay (combination); format: cell-based, Staphylococcus aureus; conditions: for Fractional inhibitory concentration index (FICI): MRSA strain MW2, synergy FICI ≤ 0.5
Method: Checkerboard assay (e.g., antibiotic synergy test): The antimicrobial or antifungal activity of a combination of a compound of present application with other agents was determined through a checkerboard assay. The checkerboard method for determining synergy of synthetic retinoids with conventional antibiotics can be conducted, for example, as previously described (See, e.g., Rajamuthiah, R. et al. A defensin from the model beetle Tribolium castaneum acts synergistically with telavancin and daptomycin against multidrug resistant Staphylococcus aureus. PLoS ONE 10, e0128576 (2015)) The compounds whose combinations were being tested were arrayed in serial concentrations, vertically for one compound and horizontally for the other compound in the same 96 well microplate. 2-fold serial dilutions of each retinoid were combined with 2-fold serial dilutions of each conventional antibiotic, which created an 8×8 matrix in a 96-well microtiter plate. The rest of the procedure involving addition of pathogen and measurement of growth was carried out as described for measurement of MIC.
The Fractional Inhibitory Concentration (FIC) index for two compounds, A and B, is defined by the following equation: FIC=((A/MIC^A)+(B/MIC^B)). MIC^A and NIC^B are MICs of compound A or B respectively. (A) is the lowest concentration of compound A in combination with compound B that inhibits growth of a pathogen and (B) is the lowest concentration of compound B that inhibits growth of a pathogen.
Optical densities at 600 nm were measured after 18 h of incubation at 37° C. The results represent three independent experiments.

[3] = E. faecium C68, read-out: Minimum inhibitory concentration
[4] = E. faecium D14, read-out: Minimum inhibitory concentration
[5] = E. faecium D24, read-out: Minimum inhibitory concentration
[6] = E. faecium D25, read-out: Minimum inhibitory concentration
[7] = E. faecium D29, read-out: Minimum inhibitory concentration
[8] = E. faecium E007, read-out: Minimum inhibitory concentration
[9] = E. faecium WB213, read-out: Minimum inhibitory concentration
[10] = E. faecium WC176, read-out: Minimum inhibitory concentration
[11] = in combination with Ciprofloxacin

Row | SMILES | MIC (E. faecium; [3]) [µg/mL] | MIC (E. faecium; [4]) [µg/mL] | MIC (E. faecium; [5]) [µg/mL] | MIC (E. faecium; [6]) [µg/mL] | MIC (E. faecium; [7]) [µg/mL] | MIC (E. faecium; [8]) [µg/mL] | MIC (E. faecium; [9]) [µg/mL] | MIC (E. faecium; [10]) [µg/mL] | susceptibility of E. faecium (E. faecium) | C. elegans animals surviving MRSA infection [1] [%] | viability of MW2 persister cells, single agent [2] | time to complete eradication of MW2 persisters, combination [2] [h] | eradication of persisters formed by S. aureus strain VRS1 and 11 clinical S. aureus strains ([2]; result in words) | bactericidal concentration against MRSA persisters [2] [µg/mL] | interaction with gentamicin (MRSA strain MW2; MRSA MW2, result in words) | Fractional inhibitory concentration index (FICI) (MRSA strain MW2; [11]) | Fractional inhibitory concentration index (FICI) (MRSA strain MW2; in combination with Defensin 1) | Fractional inhibitory concentration index (FICI) (MRSA strain MW2; in combination with Gentamicin) | Fractional inhibitory concentration index (FICI) (MRSA strain MW2; in combination with Rifampicin) | Fractional inhibitory concentration index (FICI) (MRSA strain MW2; in combination with Vancomycin) | other results
1 | O=C(O)c1ccc(-c2ccc3cc(O)c(C45CC6CC(CC(C6)C4)C5)cc3c2)cc1 [CD1530, 4-(6-hydroxy-7-tricyclo[3.3.1.13,7]dec-1-yl-2-naphthalenyl)-benzoic acid] | 2 (≈ 5.02 µM) | 2 (≈ 5.02 µM) | 1 (≈ 2.51 µM) | 1 (≈ 2.51 µM) | 1 (≈ 2.51 µM) | 2 (≈ 5.02 µM) | 1 (≈ 2.51 µM) | 2 (≈ 5.02 µM) | susceptible | 100 | did not significantly affect | ≤ 4 | annihilated | 8 | significant synergistic antimicrobial activity | 0.75 | 1 | 0.5 | 0.75 | 1 | MIC (E. faecium; E. faecium, (range given for E. faecium and E. faecalis), read-out: MIC): 2 to 4 µg/mL (≈ 5.02 to 10 µM); toxicity to C. elegans ([1]; up to 50 μg/ml): nontoxic
2 | O=C(O)/C=C/c1ccc(-c2ccc(O)c(C34CC5CC(CC(C5)C3)C4)c2)cc1 [Adarotene, (2E)-3-(4′-Hydroxy-3′-tricyclo[3.3.1.13,7]dec-1-yl[1,1′-biphenyl]-4-yl)-2-propenoic acid] | 4 (≈ 10.7 µM) | 4 (≈ 10.7 µM) | 2 (≈ 5.34 µM) | 4 (≈ 10.7 µM) | 2 (≈ 5.34 µM) | 4 (≈ 10.7 µM) | 2 (≈ 5.34 µM) | 4 (≈ 10.7 µM) |  |  |  |  | not |  | significant synergistic antimicrobial activity | 0.75 | 1 | 0.5 | 1 | 1.016 | rescue of C. elegans from MRSA infection ([1]; result in words): rescued; eradication of S. aureus strain MW2 persisters ([2]; 8×MIC, result in words): did not
3 | O=C(O)c1ccc2cc(-c3ccc(O)c(C45CC6CC(CC(C6)C4)C5)c3)ccc2c1 [CD437, 6-(4-hydroxy-3-tricyclo[3.3.1.13,7]dec-1-ylphenyl)-2-naphthalenecarboxylic acid] |  |  | 1 (≈ 2.51 µM) | 1 (≈ 2.51 µM) | 1 (≈ 2.51 µM) |  | 1 (≈ 2.51 µM) |  | susceptible | 100 | did not significantly affect | ≤ 3 | annihilated | 8 | significant synergistic antimicrobial activity |  |  |  |  |  | interaction with defensin 1 (MRSA strain MW2; MRSA MW2, result in words): synergism
